These results are taken from article PMC11628833 (Acta Pharmaceutica Sinica. B, 2024).

The target in one assay is T1, TLR3 (Homo sapiens, UniProt O15455).
T1 sequence (O15455 24-904): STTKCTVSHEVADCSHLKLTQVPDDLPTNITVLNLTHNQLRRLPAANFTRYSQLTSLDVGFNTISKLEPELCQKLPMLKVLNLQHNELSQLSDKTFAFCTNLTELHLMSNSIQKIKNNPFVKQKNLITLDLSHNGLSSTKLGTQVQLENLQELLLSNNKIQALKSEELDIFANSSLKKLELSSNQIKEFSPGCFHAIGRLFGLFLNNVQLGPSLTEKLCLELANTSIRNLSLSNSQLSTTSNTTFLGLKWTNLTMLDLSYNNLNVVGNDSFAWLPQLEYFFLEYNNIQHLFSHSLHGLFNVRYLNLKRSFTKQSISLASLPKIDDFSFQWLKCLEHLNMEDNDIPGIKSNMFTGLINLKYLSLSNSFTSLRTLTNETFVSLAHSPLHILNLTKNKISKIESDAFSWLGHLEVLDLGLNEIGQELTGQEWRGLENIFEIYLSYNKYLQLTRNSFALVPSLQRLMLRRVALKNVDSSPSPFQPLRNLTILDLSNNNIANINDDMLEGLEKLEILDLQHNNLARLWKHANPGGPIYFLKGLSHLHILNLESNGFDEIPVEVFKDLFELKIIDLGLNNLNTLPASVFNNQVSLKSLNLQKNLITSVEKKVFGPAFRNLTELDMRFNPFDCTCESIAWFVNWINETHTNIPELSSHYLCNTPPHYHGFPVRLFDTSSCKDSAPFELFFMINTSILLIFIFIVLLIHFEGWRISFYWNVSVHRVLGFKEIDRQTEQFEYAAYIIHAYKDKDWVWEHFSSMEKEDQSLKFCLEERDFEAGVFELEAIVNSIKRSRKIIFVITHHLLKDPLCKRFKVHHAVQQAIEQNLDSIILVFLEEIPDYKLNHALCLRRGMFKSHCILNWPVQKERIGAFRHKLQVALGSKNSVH
The experiment in a line: Specificity test in HEK-Blue TLR-overexpressing cells, TLR3. In kind it is cell-based. The following applies: 5 μM S-1, HEK-Blue TLR cells, TLR-specific agonist.

For the next assay, the target named is T2, TLR9 (Homo sapiens, UniProt Q9NR96).
T2 sequence (Q9NR96 26-1032): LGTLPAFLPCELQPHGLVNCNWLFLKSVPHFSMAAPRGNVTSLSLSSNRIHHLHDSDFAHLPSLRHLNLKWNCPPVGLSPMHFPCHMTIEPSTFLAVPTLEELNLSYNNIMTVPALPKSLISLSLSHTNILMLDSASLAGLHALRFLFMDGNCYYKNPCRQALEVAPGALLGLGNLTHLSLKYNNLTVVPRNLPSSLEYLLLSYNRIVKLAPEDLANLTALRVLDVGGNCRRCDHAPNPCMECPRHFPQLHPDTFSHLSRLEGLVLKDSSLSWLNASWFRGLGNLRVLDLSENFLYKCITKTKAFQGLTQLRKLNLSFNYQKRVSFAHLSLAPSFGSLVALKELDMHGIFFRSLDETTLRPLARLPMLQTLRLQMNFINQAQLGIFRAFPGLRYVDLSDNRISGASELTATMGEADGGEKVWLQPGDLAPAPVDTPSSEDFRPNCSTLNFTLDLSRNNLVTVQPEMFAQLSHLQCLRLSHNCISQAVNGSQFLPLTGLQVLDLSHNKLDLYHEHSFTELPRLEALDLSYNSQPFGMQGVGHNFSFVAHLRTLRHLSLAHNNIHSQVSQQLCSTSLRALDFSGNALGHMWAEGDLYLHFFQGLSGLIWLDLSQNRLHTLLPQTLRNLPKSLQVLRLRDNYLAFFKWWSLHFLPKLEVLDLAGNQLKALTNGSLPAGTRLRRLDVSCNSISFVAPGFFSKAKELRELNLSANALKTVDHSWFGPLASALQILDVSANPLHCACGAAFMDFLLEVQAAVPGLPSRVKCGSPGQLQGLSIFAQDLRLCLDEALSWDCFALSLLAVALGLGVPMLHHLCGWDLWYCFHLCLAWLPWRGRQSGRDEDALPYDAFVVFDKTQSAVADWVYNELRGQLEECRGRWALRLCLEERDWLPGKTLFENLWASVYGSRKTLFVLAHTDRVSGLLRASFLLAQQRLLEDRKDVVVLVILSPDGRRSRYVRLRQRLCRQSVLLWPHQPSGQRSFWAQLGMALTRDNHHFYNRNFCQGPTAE
Nature of the assay: Specificity test in HEK-Blue TLR-overexpressing cells, TLR9. The following applies: 5 μM S-1, HEK-Blue TLR cells, TLR-specific agonist. In kind it is cell-based.

Another assay addresses T3, hTLR8 (Homo sapiens, UniProt Q9NR97).
T3 sequence (Q9NR97 27-1041): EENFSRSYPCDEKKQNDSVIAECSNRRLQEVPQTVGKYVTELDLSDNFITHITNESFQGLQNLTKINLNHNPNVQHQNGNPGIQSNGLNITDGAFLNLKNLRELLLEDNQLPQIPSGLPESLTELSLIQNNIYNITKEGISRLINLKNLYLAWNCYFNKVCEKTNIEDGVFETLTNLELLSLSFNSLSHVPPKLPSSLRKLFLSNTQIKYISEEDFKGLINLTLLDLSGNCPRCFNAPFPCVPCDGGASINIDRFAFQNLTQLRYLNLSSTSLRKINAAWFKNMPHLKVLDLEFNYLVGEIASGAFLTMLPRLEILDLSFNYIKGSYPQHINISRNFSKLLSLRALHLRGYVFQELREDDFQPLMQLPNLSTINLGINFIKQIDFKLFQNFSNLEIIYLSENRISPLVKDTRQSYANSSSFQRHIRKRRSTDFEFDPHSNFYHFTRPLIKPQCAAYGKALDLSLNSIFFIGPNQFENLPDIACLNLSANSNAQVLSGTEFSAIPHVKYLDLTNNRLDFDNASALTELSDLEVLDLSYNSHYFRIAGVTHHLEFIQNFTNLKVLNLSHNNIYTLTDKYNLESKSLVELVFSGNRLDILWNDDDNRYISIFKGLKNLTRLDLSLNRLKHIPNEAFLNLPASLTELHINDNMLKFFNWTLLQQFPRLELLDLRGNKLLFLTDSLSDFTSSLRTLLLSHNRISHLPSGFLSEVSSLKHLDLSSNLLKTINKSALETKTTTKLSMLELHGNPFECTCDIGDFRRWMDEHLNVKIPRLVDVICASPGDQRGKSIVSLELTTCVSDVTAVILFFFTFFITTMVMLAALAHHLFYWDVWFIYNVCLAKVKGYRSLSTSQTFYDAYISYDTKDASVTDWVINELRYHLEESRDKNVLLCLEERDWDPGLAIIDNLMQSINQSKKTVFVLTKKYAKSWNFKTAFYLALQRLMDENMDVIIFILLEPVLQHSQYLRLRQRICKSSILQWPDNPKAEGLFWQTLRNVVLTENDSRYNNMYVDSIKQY
The experiment in a line: SEAP reporter assay in HEK-Blue hTLR8 cells. Type of assay: cell-based. Background: A reporter such as luciferase makes a cellular process visible.

A further assay has as its system TLR1/2/6. Nature of the assay: Specificity test in HEK-Blue TLR-overexpressing cells, TLR1/2/6. In kind it is cell-based, human. The following applies: 5 μM S-1, HEK-Blue TLR cells, TLR-specific agonists.
The target in another assay is TLR5 (Homo sapiens, UniProt O60602). Nature of the assay: Specificity test in HEK-Blue TLR-overexpressing cells, TLR5. As to conditions: 5 μM S-1, HEK-Blue TLR cells, TLR-specific agonist. In kind it is cell-based.
Sequence of TLR5 (O60602 21-858): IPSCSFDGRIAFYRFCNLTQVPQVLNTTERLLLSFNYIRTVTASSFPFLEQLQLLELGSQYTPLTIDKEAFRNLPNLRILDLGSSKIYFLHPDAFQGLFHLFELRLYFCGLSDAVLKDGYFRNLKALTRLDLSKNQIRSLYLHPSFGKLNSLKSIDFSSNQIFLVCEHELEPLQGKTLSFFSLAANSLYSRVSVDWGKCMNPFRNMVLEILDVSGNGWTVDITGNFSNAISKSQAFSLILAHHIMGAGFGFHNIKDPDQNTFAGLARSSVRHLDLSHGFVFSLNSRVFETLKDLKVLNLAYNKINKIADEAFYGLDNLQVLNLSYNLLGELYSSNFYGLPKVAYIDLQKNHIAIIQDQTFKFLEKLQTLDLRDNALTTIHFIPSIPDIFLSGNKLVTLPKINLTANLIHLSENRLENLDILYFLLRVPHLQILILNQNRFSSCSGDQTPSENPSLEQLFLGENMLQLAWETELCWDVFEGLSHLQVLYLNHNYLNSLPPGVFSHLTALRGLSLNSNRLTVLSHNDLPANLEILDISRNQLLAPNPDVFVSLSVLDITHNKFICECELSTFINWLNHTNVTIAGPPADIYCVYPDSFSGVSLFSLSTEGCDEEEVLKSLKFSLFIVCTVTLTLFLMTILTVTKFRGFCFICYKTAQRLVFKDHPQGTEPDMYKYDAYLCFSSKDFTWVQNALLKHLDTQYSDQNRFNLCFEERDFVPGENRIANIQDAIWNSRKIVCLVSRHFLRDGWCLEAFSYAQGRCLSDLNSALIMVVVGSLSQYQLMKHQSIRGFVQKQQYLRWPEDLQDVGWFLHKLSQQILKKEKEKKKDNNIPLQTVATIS

With `O=C(c1ccc(Cl)cc1)N1CCN(c2ccc([N+](=O)[O-])c3ncccc23)CC1` [Compound S1], the “inhibition of TLR3” value on TLR3 is “no obvious inhibition”. Also, at TLR9, the “inhibition of TLR9” value is “no obvious inhibition”. This compound also had an IC50 against hTLR8 of 130 ± 30 nM. In the assay with TLR1/2/6, the “inhibition of TLR1/2/6” value was “no obvious inhibition”. Besides, the “inhibition of TLR5” value on TLR5 was “no obvious inhibition”.

As a reminder, the IC50 is the concentration that gives 50% inhibition. Higher therefore signals weaker potency in that assay.
